From patent US7928227B2, “2-oxo-1,3,5-perhydrotriazapine derivatives useful in the treatment of hyper-proliferative, angiogenesis, and inflammatory disorders” (Bayer Healthcare LLC, priority 2003, dated 2011)

Tests used:
[1] = Pharmacokinetics in the mouse (plasma levels by LC-MS after oral gavage of Example 1); format: in vivo; conditions: for AUC / Cmax / concentration at 0.5 h / concentration at 1 h / concentration at 5 h: mouse, female ICr mice, single oral gavage of Example 1 at 30 mg/kg, plasma; for concentration at 0.5 h: 0.5 hours post dosing; for concentration at 1 h: 1 hour post dosing; for concentration at 5 h: 5 hours post dosing
Procedure: Female ICr mice received single doses of Example 1 by oral gavage at 30 mg/kg body weight. The vehicle used for administration consisted of 12.5% Cremophor, 12.5% ethanol and 75% saline. Blood samples were collected by cardiac puncture under anesthesia and plasma was isolated by centrifugation. Three animals were used for each time point of 0.5, 1 and 5 hours post dosing. Plasma levels of Example 1 and Intermediate 1 were measured by LC-MS.
Calibration samples (1 to 5,000 ng/mL) were prepared by spiking drug-free mouse plasma with known concentrations of Example 1 and Intermediate 1 and then processed with the study samples. An internal standard (close analog) was spiked at a final concentration of 100 ng/ml. Plasma samples were extracted via protein precipitation using acetonitrile (3:1). After vortexing for 1 minute, samples were centrifuged at 2500 rpm for 15 minutes. Supernatant was transferred to 96-well microtiter plates for LC-MS analysis. Analytes (Example 1 and Intermediate 1) and the internal standard were monitored using MRM transitions consisting of their protonated molecular ions to prominent fragment ions (Example 1 m/z 520 to m/z 270; Intermediate 1 m/z 465 to 252; internal standard m/z 469 to m/z 256). The calibration curve was constructed using least squares linear regression and utilized peak area ratios of the analyte and internal standard. Pharmacokinetic analysis of the measured plasma concentrations was conducted using the Watson® Drug Metabolism Laboratory Information Management System (Innaphase Corp, Philadelphia, Pa.). […] By changing the nature of substituent Q in Formula (I), it is possible to impact the stability, i.e., the speed of hydrolysis) of the prodrug, and therefore to modulate the plasma exposure to the pharmacologically active compound. High stabilities will lead to extended release of the drug, while low stabilities will contribute to high Cmax and short duration of action.

Compound | AUC [1] | Cmax [1] | concentration at 0.5 h [1] | concentration at 1 h [1] | concentration at 5 h [1] | Absorption in mice ([1]; oral gavage of Example 1 at 30 mg/kg, result in words) | melting point | Levels detected in plasma after oral administration of the pro-drug Example 1 ([1]; mice, oral gavage of Example 1 at 30 mg/kg, result in words)
CNC(=O)c1cc(Oc2ccc(N3CN(C)CN(c4ccc(Cl)c(C(F)(F)F)c4)C3=O)cc2)ccn1 [Example 1] | 53.1 µM·h | 13 µM | 12.1 µM | 13 µM | 9.4 µM | very well absorbed | 82 to 85 °C | –
CNC(=O)c1cc(Oc2ccc(NC(=O)Nc3ccc(Cl)c(C(F)(F)F)c3)cc2)ccn1 [Intermediate 1, N-(4-chloro-3(trifluoromethyl)phenyl)-N′-(4-(2-(N-methylcarbamoyl)-4-pyridyloxy)phenyl)urea, reference compound] | 1 µM·h | 0.3 µM | 0.1 µM | 0.2 µM | 0.5 µM | – | – | significant levels
